Results from patent publication US12613179B2, “Label-free electrical monitoring of cell aggregates” (NANYANG TECHNOLOGICAL UNIVERSITY, priority 2020, dated 2026).

System: cell aggregates modelling cancer tumoroids
Test: drug susceptibility testing of cell aggregates by EIS-based electrical signatures and optical microscopy
Protocol: In another set of experiments, the method of the present disclosure is shown to be useful in the continuous monitoring of the physiological and/or morphological changes of cell aggregates in drug susceptibility testing. Paclitaxel (PTX), a common anti-cancer drug for several types of cancers, was provided at different concentrations ranging from 0 nM (nanoMole) to 500 nM to cultures of cell aggregates modelling cancer tumoroids and observed over a period of 24 hours. […] Based on optical microscopy, it can be appreciated that there are hardly any distinguishable differences between the cell aggregate image at 100 nM of PTX and the cell aggregate images at 200 nM PTX or 500 nM PTX. […] Conventionally, it would have required testing the extracellular environment for metabolites to determine such a change. In contrast, by considering the two EIS-based electrical signatures of electrical size and opacity, more information on the effect of drug treatment can be determined. […] The two EIS-based electrical signatures together are able to indicate that the physiological state of the cells undergo substantive changes only after the drug concentration is raised to 500 nM. This is consistent with what is known of the drug treatment modelled in these experiments, and validates the usefulness of the EIS-based electrical signatures in monitoring physiological and/or morphological changes in 3D cell aggregates.

CC(=O)O[C@H]1C(=O)[C@@]2(C)[C@H]([C@H](OC(=O)c3ccccc3)[C@]3(O)C[C@H](OC(=O)[C@H](O)[C@@H](NC(=O)c4ccccc4)c4ccccc4)C(C)=C1C3(C)C)[C@]1(OC(C)=O)CO[C@@H]1C[C@@H]2O [Paclitaxel]
optical size of the cell aggregate (optical microscopy) (100 nM PTX, 24 hours, FIG. 17A): started to decrease
electrical size of the cell aggregates (500 nM PTX, observed over 24 hours, FIG. 17B, 0 nM control 300±41.8 μm): 281±40.3 μm
opacity of the cell aggregates (drug concentration increased from 0 nM to 500 nM, 24 hours, FIG. 17C): remains relatively unchanged
